This note sets out measurements from ChEMBL document CHEMBL1201862, “PubChem BioAssay data set” (2004).

Assay [1] addresses Muscarinic acetylcholine receptor M3 (Homo sapiens, UniProt P20309). As to the kind of experiment: human M3 receptor positive allosteric modulation, dose response, selectivity assay for M1 PAM project, cell-based, CHO-K1 hM3, Fluo-4 calcium, ACh EC20 (AID 2428). Format: functional.
Assay [2] deals with Muscarinic acetylcholine receptor M4 (Rattus norvegicus, UniProt P08485). Put plainly: rat M4 receptor positive allosteric modulation check, dose response, selectivity assay for M1 muscarinic PAM project, cell-based, CHO-K1 rat M4/Gqi5, Fluo-4 calcium, ACh EC20 (AID 2438). Format: functional.
Chain of Muscarinic acetylcholine receptor M4 (P08485 whole entry): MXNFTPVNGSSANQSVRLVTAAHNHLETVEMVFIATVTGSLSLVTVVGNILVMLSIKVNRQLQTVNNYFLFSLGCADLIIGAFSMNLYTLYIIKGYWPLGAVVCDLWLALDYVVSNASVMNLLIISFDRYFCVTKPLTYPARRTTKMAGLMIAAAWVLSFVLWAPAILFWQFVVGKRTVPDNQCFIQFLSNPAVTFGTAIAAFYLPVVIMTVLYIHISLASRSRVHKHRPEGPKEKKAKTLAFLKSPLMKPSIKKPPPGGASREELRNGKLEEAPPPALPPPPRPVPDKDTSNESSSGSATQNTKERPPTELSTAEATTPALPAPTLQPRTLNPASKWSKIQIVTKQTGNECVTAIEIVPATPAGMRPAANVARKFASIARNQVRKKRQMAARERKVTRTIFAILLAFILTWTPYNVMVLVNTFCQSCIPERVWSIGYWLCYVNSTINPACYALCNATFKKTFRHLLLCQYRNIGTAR
Assay [3] has as its target Muscarinic acetylcholine receptor M1 (Rattus norvegicus, UniProt P08482). As to the kind of experiment: rat M1 positive allosteric modulator potency, dose response, cell-based, calcium mobilization, CHO-K1, ACh EC20 (AID 2425). Format: functional.
Assay [4] deals with T1, NADPH oxidase 1 (Homo sapiens, UniProt Q9Y5S8).
T1 sequence (Q9Y5S8 whole entry): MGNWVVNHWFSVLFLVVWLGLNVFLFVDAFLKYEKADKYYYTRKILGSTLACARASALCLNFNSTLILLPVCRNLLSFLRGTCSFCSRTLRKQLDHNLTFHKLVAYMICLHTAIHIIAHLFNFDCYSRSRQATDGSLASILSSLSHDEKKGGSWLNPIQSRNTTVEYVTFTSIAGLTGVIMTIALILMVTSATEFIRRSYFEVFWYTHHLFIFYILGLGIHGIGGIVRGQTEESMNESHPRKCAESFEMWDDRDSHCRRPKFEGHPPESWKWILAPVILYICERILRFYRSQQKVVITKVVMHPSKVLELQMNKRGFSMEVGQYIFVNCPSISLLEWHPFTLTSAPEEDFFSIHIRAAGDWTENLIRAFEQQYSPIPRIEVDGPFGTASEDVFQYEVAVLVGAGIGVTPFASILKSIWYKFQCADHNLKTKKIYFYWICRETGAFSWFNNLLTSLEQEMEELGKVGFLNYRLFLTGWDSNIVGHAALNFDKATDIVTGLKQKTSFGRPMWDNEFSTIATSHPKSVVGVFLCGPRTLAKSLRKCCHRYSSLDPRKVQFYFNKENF
Format: functional, cell-based.

The target in assay [5] is Estrogen receptor (Homo sapiens, UniProt P03372). Put plainly: potentiators of ERα–SRC-1 coactivator binding, dose response, biochemical, TR-FRET, ERα LBD (AID 737).
Chain of Estrogen receptor (P03372 whole entry, the tested form may be a part): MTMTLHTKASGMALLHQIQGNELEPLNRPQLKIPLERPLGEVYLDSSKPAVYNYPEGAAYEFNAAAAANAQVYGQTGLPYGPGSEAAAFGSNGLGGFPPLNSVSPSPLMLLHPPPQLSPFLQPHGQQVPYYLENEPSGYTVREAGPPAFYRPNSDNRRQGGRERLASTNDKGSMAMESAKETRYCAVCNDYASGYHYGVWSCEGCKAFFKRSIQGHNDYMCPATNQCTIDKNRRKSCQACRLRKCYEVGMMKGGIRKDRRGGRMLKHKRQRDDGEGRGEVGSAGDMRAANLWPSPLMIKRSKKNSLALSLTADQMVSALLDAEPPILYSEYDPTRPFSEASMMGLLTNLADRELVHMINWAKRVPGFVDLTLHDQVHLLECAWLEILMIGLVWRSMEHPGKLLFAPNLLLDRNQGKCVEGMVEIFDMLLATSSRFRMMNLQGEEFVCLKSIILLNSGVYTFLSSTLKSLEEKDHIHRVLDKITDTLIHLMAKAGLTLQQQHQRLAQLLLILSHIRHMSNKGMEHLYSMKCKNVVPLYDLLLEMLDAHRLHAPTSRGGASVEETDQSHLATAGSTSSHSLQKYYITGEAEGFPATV
Assay [6] has as its target Lytic switch protein BZLF1 (Epstein-Barr virus (strain B95-8) (HHV-4) (Human herpesvirus 4), UniProt P03206). As to the kind of experiment: EBV ZTA inhibitors, dose response, counter-screen for EBNA-1 inhibitor project, biochemical, fluorescence polarization, Epstein-Barr virus, 1536-well (AID 2377).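 Further: fluorescence polarization of Cy5-labelled ZRE DNA probe bound by purified Zta.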 Set-up: species or system human gammaherpesvirus 4.
Assay [7] addresses Epstein-Barr nuclear antigen 1 (Epstein-Barr virus (strain B95-8) (HHV-4) (Human herpesvirus 4), UniProt P03211). Put plainly: EBNA-1 inhibitors, dose response, biochemical, fluorescence polarization, 1536-well (AID 2381).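 Further: fluorescence polarization of a Cy5 DNA probe bound by EBNA-1 protein.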 More on the design: species or system human gammaherpesvirus 4.
Assay [8] concerns the target T2, Neuropeptide Y receptor type 1 (Homo sapiens, UniProt P25929).
T2 sequence (P25929 whole entry): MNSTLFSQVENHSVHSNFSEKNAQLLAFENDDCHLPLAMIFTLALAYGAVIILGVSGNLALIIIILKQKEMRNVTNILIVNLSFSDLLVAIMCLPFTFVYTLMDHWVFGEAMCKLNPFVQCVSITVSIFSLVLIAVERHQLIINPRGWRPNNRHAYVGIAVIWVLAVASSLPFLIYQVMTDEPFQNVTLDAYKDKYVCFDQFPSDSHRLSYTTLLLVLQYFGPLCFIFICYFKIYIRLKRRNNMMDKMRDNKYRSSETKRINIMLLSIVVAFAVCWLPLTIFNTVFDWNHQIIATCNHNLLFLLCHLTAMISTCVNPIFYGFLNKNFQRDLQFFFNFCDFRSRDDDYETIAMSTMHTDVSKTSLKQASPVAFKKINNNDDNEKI
Format: functional.

In assay [9] the target is T3, Neuropeptide Y receptor type 2 (Homo sapiens, UniProt P49146).
T3 sequence (P49146 whole entry): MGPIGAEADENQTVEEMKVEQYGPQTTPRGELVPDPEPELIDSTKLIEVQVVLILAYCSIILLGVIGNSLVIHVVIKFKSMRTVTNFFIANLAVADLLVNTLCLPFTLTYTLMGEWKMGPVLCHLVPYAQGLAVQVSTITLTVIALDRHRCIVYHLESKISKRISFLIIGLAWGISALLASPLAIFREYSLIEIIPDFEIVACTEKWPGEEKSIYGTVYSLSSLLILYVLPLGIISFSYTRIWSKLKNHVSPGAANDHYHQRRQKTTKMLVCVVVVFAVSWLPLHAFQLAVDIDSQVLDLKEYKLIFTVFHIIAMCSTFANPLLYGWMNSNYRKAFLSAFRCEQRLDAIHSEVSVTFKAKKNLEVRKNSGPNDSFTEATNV
Format: functional, cell-based.

For assay [10], the target named is T2, Neuropeptide Y receptor type 1. As to the kind of experiment: Fluorescence-based counterscreen for potentiators or agonists of NPY-Y2: cell-based high-throughput dose response assay for potentiators or agonists of NPY-Y1. Format: functional.
Assay [11] addresses T3, Neuropeptide Y receptor type 2. Put plainly: Fluorescence-based cell-based high-throughput dose response assay for potentiators or agonists of NPY-Y2. [Related pubchem assays: 1539 (Screening assay (NPY-Y2 potentiators or agonists).), 1703 (Screening assay (CNGC inhibitors).), 1359 (Screening assay (NPY-Y2 potentiators or agonists).), 1304 (Screening assay (NPY-Y1 potentiators or agonists).) …. Format: functional.

The target of assay [12] is T4, Histone-lysine N-methyltransferase NSD2 (Homo sapiens, UniProt O96028).
T4 sequence (O96028 whole entry): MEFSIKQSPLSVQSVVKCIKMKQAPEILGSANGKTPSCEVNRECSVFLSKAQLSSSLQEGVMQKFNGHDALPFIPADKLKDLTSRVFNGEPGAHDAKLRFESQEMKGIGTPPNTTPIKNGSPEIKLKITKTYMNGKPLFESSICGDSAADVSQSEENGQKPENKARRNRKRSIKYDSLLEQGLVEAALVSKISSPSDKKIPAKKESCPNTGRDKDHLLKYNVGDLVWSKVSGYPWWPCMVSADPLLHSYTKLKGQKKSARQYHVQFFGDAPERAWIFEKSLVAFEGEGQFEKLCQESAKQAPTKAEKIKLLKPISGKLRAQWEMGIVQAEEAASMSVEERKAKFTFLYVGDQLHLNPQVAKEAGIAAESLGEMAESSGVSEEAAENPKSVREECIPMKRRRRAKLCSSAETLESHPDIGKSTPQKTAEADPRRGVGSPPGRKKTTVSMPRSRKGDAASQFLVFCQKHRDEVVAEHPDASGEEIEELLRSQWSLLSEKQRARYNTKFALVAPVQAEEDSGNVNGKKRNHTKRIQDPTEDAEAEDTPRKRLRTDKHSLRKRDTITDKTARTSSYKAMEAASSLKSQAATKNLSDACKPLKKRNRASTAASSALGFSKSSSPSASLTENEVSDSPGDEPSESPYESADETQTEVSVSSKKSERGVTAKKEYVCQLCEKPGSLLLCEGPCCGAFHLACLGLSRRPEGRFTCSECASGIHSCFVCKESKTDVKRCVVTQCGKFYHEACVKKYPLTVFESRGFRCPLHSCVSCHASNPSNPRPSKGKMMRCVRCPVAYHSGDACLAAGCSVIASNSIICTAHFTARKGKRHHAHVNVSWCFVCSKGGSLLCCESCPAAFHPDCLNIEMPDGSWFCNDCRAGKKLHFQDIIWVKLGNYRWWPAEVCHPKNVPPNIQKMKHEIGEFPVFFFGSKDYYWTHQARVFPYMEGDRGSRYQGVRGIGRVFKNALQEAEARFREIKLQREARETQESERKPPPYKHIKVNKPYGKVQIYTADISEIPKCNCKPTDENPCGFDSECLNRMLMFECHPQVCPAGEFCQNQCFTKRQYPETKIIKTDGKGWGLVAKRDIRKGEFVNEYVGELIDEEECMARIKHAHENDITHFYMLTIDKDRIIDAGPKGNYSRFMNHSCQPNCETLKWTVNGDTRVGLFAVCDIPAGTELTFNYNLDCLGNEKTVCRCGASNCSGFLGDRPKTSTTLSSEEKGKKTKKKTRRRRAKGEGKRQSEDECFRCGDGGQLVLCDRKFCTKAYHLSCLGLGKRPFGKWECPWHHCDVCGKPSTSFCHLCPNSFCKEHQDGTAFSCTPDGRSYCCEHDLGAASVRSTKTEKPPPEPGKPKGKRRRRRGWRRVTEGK
Format: biochemical.

For assay [13], the target named is Nonstructural protein 1 (Influenza A virus, UniProt Q194T2). Format: functional, Influenza A virus (A/California/07/2009(H1N1)).
Chain of Nonstructural protein 1 (Q194T2 whole entry): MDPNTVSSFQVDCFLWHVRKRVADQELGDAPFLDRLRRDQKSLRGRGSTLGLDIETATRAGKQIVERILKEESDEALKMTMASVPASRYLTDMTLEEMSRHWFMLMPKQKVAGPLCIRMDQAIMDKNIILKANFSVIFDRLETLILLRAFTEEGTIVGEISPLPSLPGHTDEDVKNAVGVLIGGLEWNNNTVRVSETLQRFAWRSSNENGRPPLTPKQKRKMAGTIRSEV
Assay [14] has as its target T3, Neuropeptide Y receptor type 2. As to the kind of experiment: Fluorescence-based cell-based high-throughput dose response assay for agonists of NPY-Y2. [Related pubchem assays: 1703 (Screening assay (CNGC inhibitors).), 1359 (Screening assay (NPY-Y2 potentiators or agonists).), 1304 (Screening assay (NPY-Y1 potentiators or agonists).), 1710 (Screening assay (NPY-Y2 agonists).), 1791 (Summary AID.)]. Format: functional.

The nature of assay [15]: C. albicans growth with fluconazole, confirmation, fluorescence, retest (AID 2467). Format: functional, cell-based.
Assay [16] can be described thus: Luminescent dose response cell-based high throughput screening assay for inhibitors of the Janus kinase 2 mutant JAK2V617F. [Related pubchem assays: 1446 (Primary screen.), 1521 (Confirmation assay.), 1486 (Counter screen.)]. Format: functional.
Assay [17] has as its system HEK293. Put plainly: Fluorescence-based counterscreen for potentiators or agonists of NPY-Y2: cell-based high-throughput dose response assay to identify inhibitors of cyclic nucleotide gated ion channel (CNGC) activity. In this assay, the parental HEK293 cell line transfected with a cyclic-nucleotide gated ion channel (CNGC)-based cAMP sensor is used to measure inhibition of isoproterenol-induced CNGC activity by test compound. The note with it: Homo sapiens. Format: functional.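 Further: stimulus is 1 µM isoproterenol at EC100 plus PDE inhibitor Ro 20-1724 at 25 µM.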

In assay [18] the target is T5, RNA-binding protein pos-1 (Caenorhabditis elegans, UniProt G5EF15).
T5 sequence (G5EF15 whole entry): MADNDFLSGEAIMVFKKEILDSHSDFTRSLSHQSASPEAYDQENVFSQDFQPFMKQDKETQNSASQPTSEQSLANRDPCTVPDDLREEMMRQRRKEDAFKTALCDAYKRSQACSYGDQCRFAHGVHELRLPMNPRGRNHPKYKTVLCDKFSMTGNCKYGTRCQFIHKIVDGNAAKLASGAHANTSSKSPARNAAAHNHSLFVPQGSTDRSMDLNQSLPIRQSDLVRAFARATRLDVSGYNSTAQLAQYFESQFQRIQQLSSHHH
Put plainly: inhibitors of POS-1/mex-3 RNA binding, dose response, biochemical, fluorescence polarization (AID 1964).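 Further: purified POS-1 fused to maltose binding protein made in E. coli; potency of compounds blocking POS-1 binding to fluorescent RNA.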

In assay [19] the target is T6, Zinc finger protein mex-5 (Caenorhabditis elegans, UniProt Q9XUB2).
T6 sequence (Q9XUB2 whole entry): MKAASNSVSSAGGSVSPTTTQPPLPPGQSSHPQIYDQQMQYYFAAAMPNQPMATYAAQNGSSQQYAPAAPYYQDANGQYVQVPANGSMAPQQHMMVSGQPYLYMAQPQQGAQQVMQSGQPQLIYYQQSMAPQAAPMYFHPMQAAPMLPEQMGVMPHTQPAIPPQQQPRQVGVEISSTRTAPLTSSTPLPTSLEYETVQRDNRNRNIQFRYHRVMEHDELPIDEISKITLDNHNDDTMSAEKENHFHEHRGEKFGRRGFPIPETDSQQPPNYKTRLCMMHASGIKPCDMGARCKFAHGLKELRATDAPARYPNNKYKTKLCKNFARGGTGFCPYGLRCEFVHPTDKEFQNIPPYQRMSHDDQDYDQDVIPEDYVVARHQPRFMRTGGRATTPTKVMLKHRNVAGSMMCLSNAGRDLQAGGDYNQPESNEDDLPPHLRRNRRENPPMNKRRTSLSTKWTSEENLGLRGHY
Put plainly: MEX-5/TCR-2 RNA interaction inhibitors, dose response, biochemical, C. elegans, fluorescence polarization (AID 1960).

The nature of assay [20]: NIH-3T3 fibroblast cytotoxicity, dose response, cytotoxicity control, cell-based, fluorescence, Alamar Blue, secondary assay (AID 2327).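 Further: NIH-3T3 mouse fibroblasts cultured with fluconazole at 8 µg/mL.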 Format: functional.
Assay [21] concerns the target T2, Neuropeptide Y receptor type 1. As to the kind of experiment: Fluorescence-based counterscreen for agonists of NPY-Y2: cell-based high-throughput dose response assay for agonists of NPY-Y1. Format: functional.
For assay [22], the target named is T1, NADPH oxidase 1. As to the kind of experiment: Luminescence-based cell-based dose response assay to identify inhibitors of NADPH oxidase 1 (NOX1). Format: functional.
Assay [23] concerns the target Induced myeloid leukemia cell differentiation protein Mcl-1 (Homo sapiens, UniProt Q07820). Format: functional.

Molecules are shown by their SMILES. Active and inactive are the calls of the source. Unless noted, the calls are words filed in the database; no cut-off is given here.

Chain of Lytic switch protein BZLF1 (P03206 whole entry): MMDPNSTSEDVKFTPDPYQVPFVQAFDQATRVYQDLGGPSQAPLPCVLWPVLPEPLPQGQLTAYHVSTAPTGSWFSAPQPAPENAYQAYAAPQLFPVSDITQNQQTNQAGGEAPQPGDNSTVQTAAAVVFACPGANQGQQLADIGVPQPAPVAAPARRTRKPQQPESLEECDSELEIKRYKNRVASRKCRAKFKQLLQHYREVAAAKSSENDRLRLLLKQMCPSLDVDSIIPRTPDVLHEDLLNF
Chain of Muscarinic acetylcholine receptor M1 (P08482 whole entry): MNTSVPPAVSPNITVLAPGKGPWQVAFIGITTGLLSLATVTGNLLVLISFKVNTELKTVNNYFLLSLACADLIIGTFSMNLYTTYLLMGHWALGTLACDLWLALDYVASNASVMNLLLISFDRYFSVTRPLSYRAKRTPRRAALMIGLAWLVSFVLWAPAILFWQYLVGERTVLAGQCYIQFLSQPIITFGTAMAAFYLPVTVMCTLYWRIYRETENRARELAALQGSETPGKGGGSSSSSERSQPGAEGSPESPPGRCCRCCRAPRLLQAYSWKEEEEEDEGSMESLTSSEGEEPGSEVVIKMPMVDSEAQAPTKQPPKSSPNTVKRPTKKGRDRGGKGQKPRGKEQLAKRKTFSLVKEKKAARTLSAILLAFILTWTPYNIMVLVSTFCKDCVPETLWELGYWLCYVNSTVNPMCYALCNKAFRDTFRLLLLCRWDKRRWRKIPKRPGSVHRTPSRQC
Chain of Epstein-Barr nuclear antigen 1 (P03211 whole entry): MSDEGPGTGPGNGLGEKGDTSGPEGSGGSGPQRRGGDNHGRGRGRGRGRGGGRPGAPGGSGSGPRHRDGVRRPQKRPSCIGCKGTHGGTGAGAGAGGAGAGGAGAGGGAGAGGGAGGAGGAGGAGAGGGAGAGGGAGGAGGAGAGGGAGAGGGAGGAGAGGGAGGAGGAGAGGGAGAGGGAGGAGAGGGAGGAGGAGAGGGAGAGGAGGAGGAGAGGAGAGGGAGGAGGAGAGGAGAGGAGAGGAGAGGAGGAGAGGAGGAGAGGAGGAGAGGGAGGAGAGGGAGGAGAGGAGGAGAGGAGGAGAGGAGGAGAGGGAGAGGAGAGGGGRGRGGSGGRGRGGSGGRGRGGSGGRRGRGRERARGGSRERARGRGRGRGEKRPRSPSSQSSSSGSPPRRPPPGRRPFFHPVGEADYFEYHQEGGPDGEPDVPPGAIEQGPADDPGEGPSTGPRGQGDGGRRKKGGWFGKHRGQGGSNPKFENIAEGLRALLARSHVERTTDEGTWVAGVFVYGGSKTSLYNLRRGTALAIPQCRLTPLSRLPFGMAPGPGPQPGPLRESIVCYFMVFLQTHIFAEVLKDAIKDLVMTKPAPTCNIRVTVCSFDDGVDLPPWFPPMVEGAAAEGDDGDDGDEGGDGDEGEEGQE
Chain of Induced myeloid leukemia cell differentiation protein Mcl-1 (Q07820 whole entry): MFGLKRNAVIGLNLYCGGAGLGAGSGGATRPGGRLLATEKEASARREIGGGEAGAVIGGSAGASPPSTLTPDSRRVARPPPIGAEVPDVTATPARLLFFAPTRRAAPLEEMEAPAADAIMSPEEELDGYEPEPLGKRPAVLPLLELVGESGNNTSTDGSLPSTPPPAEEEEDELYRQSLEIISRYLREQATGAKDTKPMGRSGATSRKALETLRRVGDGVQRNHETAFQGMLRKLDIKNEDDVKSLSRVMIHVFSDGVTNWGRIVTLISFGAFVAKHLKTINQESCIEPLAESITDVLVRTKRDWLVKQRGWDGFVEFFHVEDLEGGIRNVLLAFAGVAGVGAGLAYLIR
Chain of Muscarinic acetylcholine receptor M3 (P20309 whole entry): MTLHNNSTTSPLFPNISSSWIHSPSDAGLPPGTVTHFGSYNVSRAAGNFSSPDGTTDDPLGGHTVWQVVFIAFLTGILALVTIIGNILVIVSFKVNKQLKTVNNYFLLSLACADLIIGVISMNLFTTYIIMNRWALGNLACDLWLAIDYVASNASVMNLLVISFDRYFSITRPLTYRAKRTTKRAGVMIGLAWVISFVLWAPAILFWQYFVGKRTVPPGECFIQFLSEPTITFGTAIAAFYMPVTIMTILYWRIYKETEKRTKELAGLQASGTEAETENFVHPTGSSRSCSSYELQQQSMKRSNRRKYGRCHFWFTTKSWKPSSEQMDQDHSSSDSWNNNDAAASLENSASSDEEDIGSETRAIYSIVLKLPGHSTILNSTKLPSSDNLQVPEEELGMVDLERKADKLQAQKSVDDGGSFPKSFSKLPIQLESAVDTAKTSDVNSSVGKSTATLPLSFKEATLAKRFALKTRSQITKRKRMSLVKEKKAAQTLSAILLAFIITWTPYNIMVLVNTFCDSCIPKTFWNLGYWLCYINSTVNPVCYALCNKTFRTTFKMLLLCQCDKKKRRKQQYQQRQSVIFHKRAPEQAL

As to `Cn1cc(-c2ccc(CN3C(=O)C(=O)c4ccccc43)cc2)cn1`, the EC50 in assay [1] is 2.71 µM (active); in assay [2], 2.71 µM (active); in [3], 2.42 µM (active).

With `COc1ccccc1OC(=O)c1cc2ccccc2s1`, the IC50 in assay [4] is > 17 µM (not active).

`Cc1ccc(CN(Cc2cc3cc(C)ccc3[nH]c2=O)C(=O)N2CCOCC2)cc1`: the EC50 in assay [5] was 12.6 µM (not active).

As for `CC(=O)Nc1ccc(S(=O)(=O)N2CCN(Cc3nc(O)c4c(C)c(C)sc4n3)CC2)cc1`, the figures for the IC50 in [6] and in assay [7] were > 111 µM (not active) and > 148 µM (not active), respectively.

Regarding `CCCCC(=O)N/N=C/c1ccc(N2CCOCC2)c([N+](=O)[O-])c1`, the IC50 is 26.7 µM (not active) in assay [8] and 16.3 µM (not active) in assay [9].

Regarding `O=C1/C(=C/c2ccc(O)c(O)c2)SC(=S)N1Nc1ccccc1`, the EC50 in assay [10] is > 35.4 µM (not active); in assay [11], 26.6 µM (not active); in [14] it was > 35.4 µM (not active); in assay [15], > 38 µM (not active); in [17], > 35.4 µM (not active); in [18] it was 39.2 µM (active). The EC50 in assay [19] is 16.2 µM (active); in assay [20] it was 41.6 µM (active); in [21], > 11.8 µM (not active). Moreover, the AC50 in assay [12] is 1.49 µM (active). Besides, the values for the IC50 in assay [13] and in assay [16] were 31.6 µM (active) and 1.53 µM (active), respectively.

Consider `CCN(CC)c1ccc(NC(=O)Nc2ccc(C(C)=O)cc2)cc1`, for which the half-maximal inhibitory concentration (IC50) was 0.252 µM (active) in assay [22] and 4.48 µM (not active) in assay [23].
